pEC50: −log10 of the molar value.
Biological target: T1, 17β-HSD10 (Homo sapiens, UniProt Q99714)
T1 construct: Histev (histidine tag with TEV site) (N, cleaved yes); made in house; host or cells: E. coli BL21-CodonPlus
T1 sequence (Q99714 1-261): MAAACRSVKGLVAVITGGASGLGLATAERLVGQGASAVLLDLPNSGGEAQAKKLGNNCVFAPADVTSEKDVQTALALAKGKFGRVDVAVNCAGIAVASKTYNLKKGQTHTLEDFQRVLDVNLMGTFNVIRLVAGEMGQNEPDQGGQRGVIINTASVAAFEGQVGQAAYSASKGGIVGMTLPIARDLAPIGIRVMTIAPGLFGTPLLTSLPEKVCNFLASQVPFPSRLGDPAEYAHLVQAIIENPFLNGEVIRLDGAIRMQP
Assay: 17β-HSD10 (ABAD) enzyme inhibition assay, NADH oxidation read at 340 nm (primary screen and dose response)
Format: biochemical
Settings: for pEC50 / Max. Effect (%) / Hill Slope / Max. Fit / Min. Fit: recombinant 17βHSD10 enzyme assay; for Hill Slope / Max. Fit / Min. Fit: curve fit; for ABAD plC50: primary screening, resynthesized HTS hit compounds
Description: Cell pellets of E. coli BL21-CodonPlus cells containing Histev-17β-HSD10 protein were re-suspended for 30 min, 4° C., in lysis buffer (20 mM NaH2PO4, 30 mM imidazole, 500 mM NaCl, 10% (v/v) glycerol, pH 7.5) with the addition of complete ethylenediaminetetraacetic acid (EDTA)-free protease inhibitor tablets (Roche), lysozyme (1 mg/mL), deoxyribonuclease (DNase) (20 μg/mL) and Triton X-100 (0.1% (v/v)). Cells were lysed by passage through a cell disruptor at 30 kPSI (Constant Systems Ltd) and the lysate was cleared by centrifugation (Sorvall Evolution RC, rotor S5-34 55-34 angle, 20500 rpm, 30 min, 4° C.). Cleared lysate was filtered (0.45 μm membrane; Whatman) then applied to a Ni-nitrilotriacetic acid (NTA) (GE Healthcare) column pre-washed with lysis buffer and protein eluted with 300 mM imidazole buffer (20 mM NaH2PO4, 300 mM imidazole, 500 mM NaCl, 10% (v/v) glycerol, pH 7.5). […] Protein digestion and dialysis was carried out at 4° C. for 16 h.
Complete digestion was firstly checked by sodium dodecyl sulfate-polyacrylamide gel electrophoresis (SDS-PAGE), then fully digested protein was passed over a second Ni-column and the flow-through, containing 17β-HSD10 protein, was concentrated using a Vivaspin column (10 kDa MWCO, GE Healthcare) to ˜7 mL before final purification using gel filtration to remove imidazole (Hi-Load 16/60 Superdex 75 prep grade column, GE Healthcare, flow rate 1.5 mL/min). Protein was eluted in gel filtration buffer (10 mM trisaminomethane (Tris-HCl), 150 mM NaCl, 10% glycerol, pH 7.5) and concentrated (Vivaspin column (10 kDa molecular weight cut off (MWCO), GE Healthcare)) to 10 mg/mL. Aliquots (10 μL) were taken and flash frozen in liquid nitrogen before final storage at −80° C.
The assay buffer used contains: 10 mM Tris. HCl (pH 7.4), 150 mM NaCl, 1 mM DTT, 0.005% Tween (polysorbate 20) and 0.01% bovine serum albumin (BSA). As indicated for some experiments the assay buffer was supplemented with 100 units/ml bovine liver catalase. All experiments were conducted in clear bottom 384-well or 1536-well low volume microplates (Corning) with a final assay volume of 20 μL and the reaction progress was monitored by oxidation of NADH as determined by reduction in absorbance at 340 nm read on the EnVision plate reader (PerkinElmer).
For primary screening an endpoint assay format was adopted in which an Echo acoustic liquid dispenser (Labcyte) was used to transfer 20 nL of either reference standard, dimethylsulfoxide (DMSO) control ([…] final assay concentration (FAC)) or test compounds (10 μM FAC) to the assay plate. 10 μL of 17β-HSD10 enzyme in assay buffer (2.5 nM, FAC) was then added to the plates using the Preddator liquid handling robot (Redd and Whyte) and plates were incubated at room temperature for 15 minutes. 10 μL of substrate mixture (100 μM acetoacetyl-CoA and 100 μM NADH, FAC) was added with the Preddator. To start the reaction and the plates were left to incubate for 35 minutes at room temperature before the absorbance at 340 nm was read on the EnVision plate reader (PerkinElmer). For kinetic assay format and dose response follow up experiments the same protocol was adopted but the absorbance at 340 nm was monitored constantly for 45 minutes from immediately after the reaction was started.

Structure (SMILES) | pEC50 | Max. Effect (%) | Hill Slope | Max. Fit | Min. Fit | 17β-HSD10 / ABAD activity in words (SAR discussion) | ABAD plC50
CCCCN(C(=O)c1ccccc1F)c1cccc(N(C)Cc2c[nH]cn2)c1 [ESC1002508, N-butyl-2-fluoro-N-[3-[1H-imidazol-4-ylmethyl(methyl)amino]phenyl]benzamide] | 5.81 | 92 | 1.2 | 96 | 0 |  | 
CC(C)CN(C(=O)c1ccc(Cl)s1)c1cccc(N(C)Cc2c[nH]cn2)c1 [ESC1002460, 5-chloro-N-[3-[1H-imidazol-4-ylmethyl(methyl)amino]phenyl]-N-isobutyl-thiophene-2-carboxamide] | 5.92 | 90 | 1 | 95 | −5 |  | 
COc1cccc(-c2ccccc2[C@H]2CCCN2C(=O)c2cccs2)c1 [ESC1002425] | 6.32 | 96 | 1.1 | 95 | −8 |  | 
CC(C)CN(C(=O)c1ccc(F)cc1F)c1cccc(N(C)Cc2c[nH]cn2)c1 [ESC1002454, 2,4-difluoro-N-[3-[1H-imidazol-4-ylmethyl(methyl)amino]phenyl]-N-isobutyl-benzamide] | 6.34 | 96 | 1.1 | 97 | −8 |  | 
CC(C)CN(C(=O)c1ccccc1F)c1cccc(N(C)Cc2c[nH]c(C(C)C)n2)c1 [ESC1002633] | < 4.70 | 45 | 0.93 | 100 | −3 | further losses in potency | 
Cc1ccc(C(=O)N(CC(C)C)c2cccc(N(C)Cc3cnc[nH]3)c2)cc1 [ESC1002032, N-[3-[1H-imidazol-5-ylmethyl(methyl)amino]phenyl]-N-isobutyl-4-methyl-benzamide] | 6.60 | 99 | 0.9 | 99 | 0 |  | 6.6
COc1cccc(-c2ccccc2[C@H]2CCCN2C(=O)c2sccc2OC)c1 [ESC1002433] | < 4.70 | 17 |  |  |  |  | 
Cc1ccsc1C(=O)N1CCC[C@H]1c1ccccc1-c1ccccc1Cl (single isomer, unassigned) [ESC1002766] | < 4.70 | 14 |  |  |  |  | 
CC(=O)CN(CC(C)=O)c1cccc(N(CC(C)C)C(=O)c2ccccc2F)c1 [ESC1002724] | < 4.70 | −3 |  |  |  |  | 
COc1cccc(-c2ccccc2[C@H]2CCCN2C(C)c2ccccc2)c1 (some centres unmarked) [ESC1002505] | < 4.70 | 3 |  |  |  |  | 
Cc1ccsc1C(=O)N1CCC[C@@H]1c1ccccc1-c1cnn(C2CCNCC2)c1 [ESC1002466] | 4.74 | 52 | 1 | 95 | −1 |  | 
COc1cccc(-c2ccccc2[C@H]2CCCN2Cc2ccccc2)c1 [ESC1002504] | < 4.70 | −6 |  |  |  |  | 
Cc1ccsc1C(=O)N1CCC[C@H]1c1ccccc1-c1cccc(C(F)(F)F)c1 (racemic) [ESC1002790] |  | 93 | 1.2 | 93 | −1 |  | 
Cc1ccc(C(=O)N(CC2CC2)c2cccc(N(C)Cc3c[nH]cn3)c2)cc1 [ESC1002399, N-(cyclopropylmethyl)-N-[3-[1H-imidazol-4-ylmethyl(methyl)amino]phenyl]-4-methyl-benzamide] | 6.00 | 95 | 1.1 | 99 | 2 |  | 
CN(Cc1cnc[nH]1)c1cccc(NC(=O)c2ccccc2F)c1 [ESC1002056, 2-fluoro-N-[3-[1H-imidazol-5-ylmethyl(methyl)amino]phenyl]benzamide] | < 4.70 | 4 |  |  |  |  | 
Cc1ccsc1C(=O)N1CCC[C@@H]1c1ccccc1-c1c[nH]nc1C [ESC1002464] | 5.69 | 84 | 1.1 | 91 | −5 |  | 
CC(C)CN(C(=O)c1ccccc1F)c1cccc(-n2ccnc2)c1 [ESC1002765] | < 4.70 | −2 |  |  |  |  | 
COc1cccc(C(=O)N(CC(C)C)c2cccc(N(C)Cc3cnc[nH]3)c2)c1 [ESC1002038, N-[3-[1H-imidazol-5-ylmethyl(methyl)amino]phenyl]-N-isobutyl-3-methoxy-benzamide] | 5.70 | 92 | 0.8 | 105 | −2 |  | 5.7
CN(Cc1cncn1C(=O)OC(C)(C)C)c1cccc(NC(=O)c2ccccc2F)c1 [ESC1002055] | < 4.70 | 1 |  |  |  |  | 
COc1cc(-c2ccccc2[C@@H]2CCCN2C(=O)c2sccc2Cl)ccc1C (racemic) [ESC1002700] | 6.40 | 93 | 1.4 | 92 | −2 |  | 
CC(C)CN(C(=O)c1ccccc1Cl)c1cccc(N(C)Cc2c[nH]cn2)c1 [ESC1002457, 2-chloro-N-[3-[1H-imidazol-4-ylmethyl(methyl)amino]phenyl]-N-isobutyl-benzamide] | 6.35 | 95 | 1.4 | 94 | −4 |  | 
Cc1ccsc1C(=O)N1CCC[C@@H]1c1ccccc1-c1ccc(F)cc1 [ESC1002423] | 6.42 | 96 | 2.3 | 93 | 9 |  | 
O=C(c1ncn[nH]1)N1CCC[C@H]1c1ccccc1 [S1−T3, 5-{[(2S)-2-phenylpyrrolidin-1-yl]carbonyl}-1H-1,2,4-triazole] | < 4.70 | 7.1 |  |  |  |  | 
O=C(c1sccc1Cl)N1CCC[C@H]1c1ccccc1-c1cc(O)cc(F)c1 (single isomer, unassigned) [ESC1002801] | 7.29 | 100 | 1.2 | 96 | −1 |  | 

From patent publication US20260132123A1, “ABAD INHIBITOR COMPOUNDS” (UNIVERSITY COURT OF THE UNIVERSITY OF ST ANDREWS, priority 2021, published 2026)
